Measurements as given in PubChem BioAssay (NCI).
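Cells were grown in 96-well plates and exposed to each compound for 48 hours at five concentrations; endpoints were interpolated linearly between bracketing concentrations, or set to the highest concentration if not reached. Definition used: TGI = concentration required for complete inhibition of growth.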

Legend:
Test in all cases: DTP human tumour cell line panel, 48 h
[1] = test system: K-562 leukemia
[2] = test system: HS 578T breast
[3] = test system: BT-549 breast
[4] = test system: MOLT-4 leukemia
[5] = test system: CAKI-1 renal
[6] = test system: NCI/ADR-RES ovarian
[7] = test system: HT29 colon
[8] = test system: PC-3 prostate
[9] = test system: OVCAR-4 ovarian
[10] = test system: NCI-H23 lung
[11] = test system: SF-539 CNS
[12] = test system: HCT-116 colon
[13] = test system: NCI-H460 lung
[14] = test system: M14 melanoma
[15] = test system: T-47D breast
[16] = test system: SN12C renal
[17] = test system: SK-MEL-28 melanoma
[18] = test system: MDA-MB-435
[19] = test system: NCI-H522 lung
[20] = test system: COLO 205 colon
[21] = test system: HCT-15 colon
[22] = test system: SF-268 CNS
[23] = test system: RXF 393 renal
[24] = test system: SK-MEL-2 melanoma
[25] = test system: MCF7 breast
[26] = test system: OVCAR-3 ovarian
[27] = test system: DU-145 prostate
[28] = test system: SNB-19 CNS
[29] = test system: HOP-92 NSCLC
[30] = test system: CCRF-CEM leukemia
[31] = test system: UACC-257 melanoma
[32] = test system: NCI-H226 lung
[33] = test system: LOX IMVI melanoma
[34] = test system: HOP-62 NSCLC
[35] = test system: A498 renal
[36] = test system: HL-60(TB) leukemia
[37] = test system: MDA-MB-231 breast
[38] = test system: 786-0 renal
[39] = test system: U251 CNS
[40] = test system: SK-OV-3 ovarian
[41] = test system: UACC-62 melanoma
[42] = test system: SW-620 colon
[43] = test system: OVCAR-5 ovarian
[44] = test system: SF-295 CNS
[45] = test system: TK-10 renal
[46] = test system: IGROV1 ovarian
[47] = test system: ACHN renal
[48] = test system: KM12 colon
[49] = test system: MALME-3M melanoma
[50] = test system: OVCAR-8 ovarian
[51] = test system: RPMI-8226 leukemia
[52] = test system: MDA-N
[53] = test system: A549 NSCLC
[54] = test system: HCC-2998 colon
[55] = test system: EKVX NSCLC
[56] = test system: UO-31 renal
[57] = test system: SK-MEL-5 melanoma
[58] = test system: SNB-75 CNS
[59] = test system: SR leukemia

O=C(N/N=C(/COc1cccc(Cl)c1)N=Cc1ccncc1)c1ccncc1
TGI [1]: > 100 µM
TGI [2]: > 100 µM
TGI [3]: > 100 µM
TGI [4]: > 100 µM
TGI [5]: > 100 µM
TGI [6]: > 100 µM
TGI [7]: > 100 µM
TGI [8]: > 100 µM
TGI [9]: > 100 µM
TGI [10]: > 100 µM
TGI [11]: > 100 µM
TGI [12]: > 100 µM
TGI [13]: > 100 µM
TGI [14]: > 100 µM
TGI [15]: > 100 µM
TGI [16]: > 100 µM
TGI [17]: > 100 µM
TGI [18]: > 100 µM
TGI [19]: > 100 µM
TGI [20]: > 100 µM
TGI [21]: > 100 µM
TGI [22]: > 100 µM
TGI [23]: > 100 µM
TGI [24]: > 100 µM
TGI [25]: > 100 µM
TGI [26]: > 100 µM
TGI [27]: > 100 µM
TGI [28]: > 100 µM
TGI [29]: > 100 µM
TGI [30]: > 100 µM
TGI [31]: > 100 µM
TGI [32]: > 100 µM
TGI [33]: > 100 µM
TGI [34]: > 100 µM
TGI [35]: > 100 µM
TGI [36]: > 100 µM
TGI [37]: > 100 µM
TGI [38]: > 100 µM
TGI [39]: > 100 µM
TGI [40]: > 100 µM
TGI [41]: > 100 µM
TGI [42]: > 100 µM
TGI [43]: > 100 µM
TGI [44]: > 100 µM
TGI [45]: > 100 µM
TGI [46]: > 100 µM
TGI [47]: > 100 µM
TGI [48]: > 100 µM
TGI [49]: > 100 µM
TGI [50]: > 100 µM
TGI [51]: > 100 µM
TGI [52]: > 100 µM
TGI [53]: > 100 µM
TGI [54]: > 100 µM
TGI [55]: > 100 µM

CCN(CC)CCNc1ccc([N+](=O)[O-])c2nc3ccccc3c(N)c12
TGI [1]: 1.75 µM
TGI [2]: 1.83 µM
TGI [56]: 5.94 µM
TGI [3]: 2.38 µM
TGI [4]: 2.23 µM
TGI [5]: > 10 µM
TGI [6]: 1.94 µM
TGI [7]: 2.28 µM
TGI [8]: 1.74 µM
TGI [9]: 1.48 µM
TGI [10]: 2.03 µM
TGI [11]: 1.84 µM
TGI [12]: 1.5 µM
TGI [13]: 1.24 µM
TGI [14]: 1.67 µM
TGI [15]: > 10 µM
TGI [16]: > 10 µM
TGI [57]: 1.1 µM
TGI [18]: 1.67 µM
TGI [20]: 1.47 µM
TGI [21]: 1.75 µM
TGI [22]: 3.79 µM
TGI [58]: 2.39 µM
TGI [23]: 1.52 µM
TGI [24]: 0.955 µM
TGI [26]: 5.13 µM
TGI [27]: > 10 µM
TGI [29]: 5.84 µM
TGI [30]: 2.08 µM
TGI [31]: 7.37 µM
TGI [32]: 5.62 µM
TGI [33]: 1.61 µM
TGI [34]: > 10 µM
TGI [35]: 2.91 µM
TGI [36]: 2.11 µM
TGI [37]: 2.4 µM
TGI [38]: 2.04 µM
TGI [39]: > 10 µM
TGI [41]: 4.07 µM
TGI [42]: 1.91 µM
TGI [43]: 5.26 µM
TGI [44]: 1.75 µM
TGI [45]: > 10 µM
TGI [46]: > 10 µM
TGI [47]: 3.75 µM
TGI [59]: 2.39 µM
TGI [48]: 1.41 µM
TGI [50]: > 10 µM
TGI [51]: 6.18 µM
TGI [52]: 2.14 µM
TGI [53]: 2.39 µM
TGI [55]: 2.51 µM

ON=C1CCCCC(=NO)CCCC1
TGI [1]: > 100 µM
TGI [2]: > 100 µM
TGI [56]: > 100 µM
TGI [3]: > 100 µM
TGI [5]: > 100 µM
TGI [6]: > 100 µM
TGI [7]: > 100 µM
TGI [8]: > 100 µM
TGI [9]: > 100 µM
TGI [10]: > 100 µM
TGI [11]: > 100 µM
TGI [12]: > 100 µM
TGI [13]: > 100 µM
TGI [15]: > 100 µM
TGI [16]: > 100 µM
TGI [17]: > 100 µM
TGI [57]: > 100 µM
TGI [18]: > 100 µM
TGI [19]: > 100 µM
TGI [20]: > 100 µM
TGI [21]: > 100 µM
TGI [22]: > 100 µM
TGI [58]: > 100 µM
TGI [24]: > 100 µM
TGI [25]: > 100 µM
TGI [27]: > 100 µM
TGI [28]: > 100 µM
TGI [29]: > 100 µM
TGI [31]: > 100 µM
TGI [32]: > 100 µM
TGI [33]: > 100 µM
TGI [35]: > 100 µM
TGI [37]: > 100 µM
TGI [38]: > 100 µM
TGI [39]: > 100 µM
TGI [40]: > 100 µM
TGI [41]: > 100 µM
TGI [42]: > 100 µM
TGI [44]: > 100 µM
TGI [45]: > 100 µM
TGI [47]: > 100 µM
TGI [48]: > 100 µM
TGI [49]: > 100 µM
TGI [50]: > 100 µM
TGI [51]: > 100 µM
TGI [52]: > 100 µM
TGI [53]: > 100 µM
TGI [54]: > 100 µM

O=[N+]([O-])c1cc2n[nH]nc2c2nonc12
TGI [1]: > 100 µM
TGI [2]: 58.8 µM
TGI [56]: 38.6 µM
TGI [3]: 24.1 µM
TGI [4]: 95.6 µM
TGI [5]: 77.7 µM
TGI [6]: > 100 µM
TGI [7]: > 100 µM
TGI [8]: > 100 µM
TGI [9]: > 100 µM
TGI [10]: 83.3 µM
TGI [11]: 56 µM
TGI [12]: 43.7 µM
TGI [13]: > 100 µM
TGI [14]: 47.4 µM
TGI [15]: > 100 µM
TGI [16]: > 100 µM
TGI [17]: > 100 µM
TGI [57]: 24.7 µM
TGI [18]: 30.1 µM
TGI [19]: 32.6 µM
TGI [20]: 71.5 µM
TGI [21]: > 100 µM
TGI [22]: > 100 µM
TGI [58]: > 100 µM
TGI [24]: > 100 µM
TGI [25]: 21.5 µM
TGI [26]: 95.1 µM
TGI [27]: > 100 µM
TGI [28]: > 100 µM
TGI [29]: > 100 µM
TGI [30]: 59.9 µM
TGI [31]: 63 µM
TGI [32]: 40.9 µM
TGI [33]: > 100 µM
TGI [34]: > 100 µM
TGI [36]: 61.3 µM
TGI [37]: > 100 µM
TGI [38]: > 100 µM
TGI [39]: > 100 µM
TGI [40]: > 100 µM
TGI [42]: > 100 µM
TGI [43]: 76.5 µM
TGI [44]: > 100 µM
TGI [45]: > 100 µM
TGI [46]: > 100 µM
TGI [47]: 67.6 µM
TGI [59]: > 100 µM
TGI [48]: > 100 µM
TGI [49]: > 100 µM
TGI [50]: 58.1 µM
TGI [51]: > 100 µM
TGI [52]: 80.5 µM
TGI [53]: > 100 µM
TGI [54]: 38.7 µM
TGI [55]: > 100 µM
